Drawing on patent US20110130397A1, “PYRROLINONE COMPOUNDS AS INHIBITORS OF BACTERIAL PEPTIDYL TRNA HYDROLASE AND USES THEREOF” (priority 2006, published 2011), this text covers melting point for 44 molecules.

The structures appear in SMILES notation.

With `COc1ccc2nc(N3C(=O)C(O)=C(C(=O)c4ccc(C)o4)C3c3cccc(O)c3)sc2c1` (centres unmarked) [Compound 155], the melting point (usually the temperature, or range, at which the solid turns liquid) fell in the range of 263 to 264 °C. In the case of `CCOC(=O)C1=C(O)C(=O)N(c2nc3ccc(F)cc3s2)C1c1ccc(F)cc1` (centres unmarked) [Compound 425], the melting point is 218 to 219 °C.

`Cc1ccc(C(=O)C2=C(O)C(=O)N(Cc3nn[nH]n3)C2)o1` [Compound 178]: the melting point is 233 to 234 °C.

For `CCc1ccc2nc(N3C(=O)C(O)=C(C(=O)c4ccc(C)o4)C3c3ccc(Cl)c(Cl)c3)sc2c1` (centres unmarked) [Compound 134], the melting point was in the range of 197 to 201 °C. The molecule `COc1ccccc1CC(=O)C1=C(O)C(=O)N(c2nc3ccc(Cl)cc3s2)C1c1ccccc1F` (centres unmarked) [Compound 481] registered a melting point of 186 to 188 °C.

`COc1ccccc1CC(=O)C1=C(O)C(=O)N(c2nc3ccc(F)cc3s2)C1c1ccccc1F` (centres unmarked) [Compound 482]: the melting point is 207 to 208 °C. In the case of `CCOc1ccc2nc(N3C(=O)C(O)=C(C(=O)c4ccc(C)o4)C3c3cccc([N+](=O)[O-])c3)sc2c1` (centres unmarked) [Compound 184] it was 256 to 257 °C; in that of `COc1ccc2nc(N3C(=O)C(O)=C(C(=O)c4ccc(C)o4)C3c3ccccc3F)sc2c1` (centres unmarked) [Compound 151], 268 to 269 °C; in that of `O=C(O)CCC(=O)C1=C(O)C(=O)N(c2nc3ccc(Cl)cc3s2)C1c1ccc(F)cc1` (centres unmarked) [Compound 569], 262 to 263 °C. In the case of `Cc1ccc(C(=O)C2=C(O)C(=O)N(c3nc4cccnc4s3)C2c2ccccc2F)o1` (centres unmarked) [Compound 245] it was 227 to 229 °C.

Molecule `Cc1ccc(C(=O)C2=C(O)C(=O)N(c3ncnc4[nH]cnc34)C2c2ccccc2F)o1` (centres unmarked) [Compound 219] registered a melting point of 170 to 173 °C. In the case of `Cc1ccc(C(=O)C2=C(O)C(=O)N(CCCN(CCCNC(=O)OC(C)(C)C)C(=O)OC(C)(C)C)C2c2ccc(F)cc2)o1` (centres unmarked) [Compound 490] it was 146 to 148 °C; in that of `Cc1ccc(C(=O)C2=C(O)C(=O)N(c3nc4ccc(F)cc4s3)C2c2ccc3c(c2)OCCO3)o1` (centres unmarked) [Compound 597], 236 to 237 °C. As to `Cc1ccc(C(=O)C2=C(O)C(=O)N(c3nc4ccc(Cl)cc4s3)C2c2ccc3ccccc3c2)o1` (centres unmarked) [Compound 599], the melting point lay within 255 to 257 °C. Turning to `COc1cc(C2C(C(=O)c3ccc(C)o3)=C(O)C(=O)N2c2nc3ccc(F)cc3s2)cc(OC)c1OC` (centres unmarked) [Compound 606], the melting point lay in the range of 244 to 245 °C. Regarding `Cc1ccc(C(=O)C2=C(O)C(=O)N(Cc3nc4ccccc4[nH]3)C2c2ccccc2F)o1` (centres unmarked) [Compound 566], the melting point fell in the range of 91 to 93 °C.

As for `Cc1ccc(C(=O)C2=C(O)C(=O)N(c3nc(N4CCOCC4)c4nc[nH]c4n3)C2c2ccccc2)o1` (centres unmarked) [Compound 283], the melting point lay in the range of 291 to 292 °C. In the case of `O=C(COc1ccccc1)C1=C(O)C(=O)N(c2nc3c(Cl)cccc3s2)C1c1ccccc1F` (centres unmarked) [Compound 449], the melting point fell in the range of 131 to 133 °C. In the case of `Cc1ccc(C(=O)C2=C(O)C(=O)N(c3nc4cc(Cl)ccc4o3)C2c2ccccc2F)o1` (centres unmarked) [Compound 160] it was 244 to 245 °C; in that of `Cc1ccc(C(=O)C2=C(O)C(=O)N(c3nc4ccc(F)cc4s3)C2c2ccc(C#N)cc2)o1` (centres unmarked) [Compound 621], 255 to 256 °C; in that of `Cc1ccc(C(=O)C2=C(O)C(=O)N(c3ccc4ncsc4c3)C2c2ccccc2F)o1` (centres unmarked) [Compound 564], 231 to 232 °C. With `Cc1ccc(C(=O)C2=C(O)C(=O)N(c3ncnc4[nH]ncc34)C2c2ccccc2F)o1` (centres unmarked) [Compound 218], the melting point lay in the range of 256 to 258 °C.

The molecule `COc1cc(C2C(C(=O)c3ccc(C)o3)=C(O)C(=O)N2c2nc3ccc(Cl)cc3s2)cc(OC)c1OC` (centres unmarked) [Compound 605] displayed a melting point of 229 to 230 °C. Molecule `Cc1ccc(C(=O)C2=C(O)C(=O)N(c3nc4ccc(Cl)cc4s3)C2c2ccc(-c3ccccc3)cc2)o1` (centres unmarked) [Compound 464] came in with a melting point of 244 to 245 °C. Regarding `Cc1ccc(C(=O)C2=C(O)C(=O)N(c3nc4ccc(Cl)cc4s3)C2c2ccc(C#N)cc2)o1` (centres unmarked) [Compound 620], the melting point fell in the range of 259 to 260 °C. The figure for `COc1ccccc1CC(=O)C1=C(O)C(=O)N(c2nc3ccc(Cl)cc3s2)C1c1ccc(Cl)cc1` (centres unmarked) [Compound 487] is 247 to 248 °C. Take `CCOc1ccc2nc(N3C(=O)C(O)=C(C(=O)c4ccc(C)o4)C3c3ccc(O)c(C(=O)O)c3)sc2c1` (centres unmarked) [Compound 254]: the melting point lay in the range of 251 to 252 °C. `COc1cc(C2C(C(=O)c3ccc(C)o3)=C(O)C(=O)N2c2nc3c(Cl)cccc3s2)cc(OC)c1OC` (centres unmarked) [Compound 607]: the melting point was in the range of 251 to 252 °C. As to `O=C(C1=C(O)C(=O)N(c2nc3ccc(Cl)cc3s2)C1c1ccccc1F)C1CCC1` (centres unmarked) [Compound 571], the melting point fell in the range of 262 to 263 °C. For the molecule `COc1ccccc1CC(=O)C1=C(O)C(=O)N(c2nc3c(Cl)cccc3s2)C1c1ccc(Cl)cc1` (centres unmarked) [Compound 489], the melting point fell in the range of 176 to 178 °C. On to `COCCOc1ccc(CCC(=O)C2=C(O)C(=O)N(c3nc4c(Cl)cccc4s3)C2c2ccccc2F)cc1` (centres unmarked) [Compound 577], for which the melting point is 179 to 180 °C.

In the case of `CCOC(=O)CCC(=O)C1=C(O)C(=O)N(c2nc3c(Cl)cccc3s2)C1c1ccc(F)cc1` (centres unmarked) [Compound 500], the melting point lay in the range of 178 to 179 °C.

`O=C(C1=C(O)C(=O)N(c2nc3c(Cl)cccc3s2)C1c1ccccc1F)c1nccs1` (centres unmarked) [Compound 439] had a melting point of 320 to 321 °C.

In turn, `CCOC(=O)CCC(=O)C1=C(O)C(=O)N(c2nc3ccc(F)cc3s2)C1c1ccc(F)cc1` (centres unmarked) [Compound 497] displayed a melting point of 201 to 202 °C.

Molecule `Cc1ccc(C(=O)C2=C(O)C(=O)N(c3nc4ccc(Cl)cc4s3)C2c2cccc(F)c2F)o1` (centres unmarked) [Compound 623] gave a melting point of 253 to 254 °C.

As for `Cc1ccc(C(=O)C2=C(O)C(=O)N(c3nc(N4CCOCC4)c4nc[nH]c4n3)C2c2ccccc2F)o1` (centres unmarked) [Compound 285], the melting point lay within 297 to 299 °C. Molecule `Cc1ccc(C(=O)C2=C(O)C(=O)N(c3nc4ccc(S(C)(=O)=O)cc4s3)C2C2CCCCC2)o1` (centres unmarked) [Compound 179] came in with a melting point of 208 to 209 °C.

As for `Cc1ccc(C(=O)C2=C(O)C(=O)N(c3nc4ccccc4s3)C2c2ccccc2F)o1` (centres unmarked) [Compound 163], the melting point lay in the range of 253 to 254 °C. In the case of `CCc1ccc2nc(N3C(=O)C(O)=C(C(=O)c4ccc(C)o4)C3c3ccc(C(F)(F)F)cc3)sc2c1` (centres unmarked) [Compound 137] it was 138 to 140 °C; in that of `CCc1ccc2nc(N3C(=O)C(O)=C(C(=O)c4ccc(C)o4)C3c3ccc(F)cc3)sc2c1` (centres unmarked) [Compound 131], 222 to 225 °C. `COCC(=O)C1=C(O)C(=O)N(c2nc3ccc(Cl)cc3s2)C1c1ccc(F)cc1` (centres unmarked) [Compound 442] had a melting point of 263 to 264 °C. The figure for `O=C(C1=C(O)C(=O)N(c2nc3ccc(F)cc3s2)C1c1ccccc1F)c1nccs1` (centres unmarked) [Compound 437] is 298 to 299 °C; for `CCOC(=O)CCC(=O)C1=C(O)C(=O)N(c2nc3c(Cl)cccc3s2)C1c1ccc(Cl)cc1` (centres unmarked) [Compound 501] it is 215 to 216 °C.

`CCc1ccc2nc(N3C(=O)C(O)=C(C(=O)c4ccc(C)o4)C3c3ccc(C(C)C)cc3)sc2c1` (centres unmarked) [Compound 135] displayed a melting point of 220 to 222 °C.
